By EC50 is commonly meant the concentration at which the effect is half-maximal.

Structures can show the parent of a compound that is named as a salt.

Our source for the EC50 values is patent US12629374B2, “Antimalarial agents” (Merck Sharp & Dohme LLC, priority 2020, dated 2026).

In the first test the test system is ring stage parasites. Put plainly: Parasite growth potency assay, 72 hours, LDH readout. The class given is cell-based. The following applies: 72 h, parasite growth measured by LDH assay after 72 hours at 37° C.; 0.7% rings, 2% haematocrit; read-out: EC50. An outline of the steps:
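Parasite growth was quantified by LDH assay after a −80 °C freeze-thaw. Before that, compound was incubated for 72 h at 37 °C under humidified gas with ring-stage cultures adjusted to 0.7% parasitemia and 2% haematocrit in serum- and albumax-supplemented RPMI-Hepes.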
As for `CC#CCCC(c1cccc(C(=O)NC2CC(C)(C)Oc3ccccc32)c1)N1C(=N)NC(CC)(CC)CC1=O` (stereo not drawn) [Example 83A, [1-[1-[3-[(2,2-dimethylchroman-4-yl)carbamoyl]phenyl]hex-4-ynyl]-4,4-diethyl-6-oxo-hexahydropyrimidin-2-ylidene]ammonium; 2,2,2-trifluoroacetate], the EC50 is 62.9 nM.

For `CCC[C@H](c1cccc(C(=O)N[C@@H]2c3ccccc3C[C@H]2O)c1)N1C(=N)NC(CC)(CC)CC1=O` [Example 102, [4,4-diethyl-1-[(1R)-1-[3-[[(1R,2R)-2-hydroxyindan-1-yl]carbamoyl]phenyl]butyl]-6-oxo-hexahydropyrimidin-2-ylidene]ammonium; 2,2,2-trifluoroacetate], the EC50 was 0.5 nM.

With `CC(C)[C@]1(C)CC(=O)N([C@@H](c2cccc(C(=O)N[C@H]3CCOc4ccccc43)c2)C23CC(C2)C3)C(=N)N1` [Example 26, [(4S)-1-[1-bicyclo[1.1.1]pentanyl-[3-[[(4S)-chroman-4-yl]carbamoyl]phenyl]methyl]-4-isopropyl-4-methyl-6-oxo-hexahydropyrimidin-2-ylidene]ammonium; 2,2,2-trifluoroacetate], the EC50 came to 8.9 nM.

Turning to `CCC1(CC)CC(=O)N(Cc2cccc(C(=O)N[C@@H]3c4ccccc4OCC3(C)O)c2)C(=N)N1` (stereo in doubt) [Example 131A, 3-[(4,4-diethyl-2-imino-6-oxo-hexahydropyrimidin-1-yl)methyl]-N-(3-hydroxy-3-methyl-chroman-4-yl)benzamide], the EC50 came out at 6.6 nM.

Regarding `CCC1(CC)CC(=O)N([C@H](CCN2CCOCC2)c2cccc(C(=O)N[C@H]3C[C@H](C(F)(F)F)Oc4ccccc43)c2)C(=N)N1` [Example 136, [4,4-diethyl-1-[3-morpholin-4-ium-4-yl-1-[3-[[(2R,4S)-2-(trifluoromethyl)chroman-4-yl]carbamoyl]phenyl]propyl]-6-oxo-hexahydropyrimidin-2-ylidene]ammonium; 2,2,2-trifluoroacetate], the 50% effective concentration (EC50) was found to be 1.3 nM.

As for `CC#CCC[C@H](c1cncc(C(=O)N[C@H]2CC(C)(C)Oc3ccccc32)c1)N1C(=N)NC(CC)(CC)CC1=O` [Example 111, [1-[1-[5-[[(4S)-2,2-dimethylchroman-4-yl]carbamoyl]pyridin-1-ium-3-yl]hex-4-ynyl]-4,4-diethyl-6-oxo-hexahydropyrimidin-2-ylidene]ammonium; 2,2,2-trifluoroacetate], the EC50 is 0.4 nM.

Regarding `CCC1(CC)CC(=O)N([C@H](CCN2CCOCC2)c2cccc(C(=O)NC3CC(C)(C)Oc4ccc(F)cc43)c2)C(=N)N1` (stereo in doubt) [Example 137, [4,4-diethyl-1-[1-[3-[(6-fluoro-2,2-dimethyl-chroman-4-yl)carbamoyl]phenyl]-3-morpholin-4-ium-4-yl-propyl]-6-oxo-hexahydropyrimidin-2-ylidene]ammonium; 2,2,2-trifluoroacetate], the 50% effective concentration (EC50) was 0.8 nM.

For the compound `CCC1(CC)CC(=O)N([C@H](c2ccc(S(C)(=O)=O)cc2)c2cccc(C(=O)N[C@@H]3c4ccccc4C[C@H]3O)c2)C(=N)N1` [Example 116, [4,4-diethyl-1-[[3-[[(1R,2R)-2-hydroxyindan-1-yl]carbamoyl]phenyl]-(4-methylsulfonylphenyl)methyl]-6-oxo-hexahydropyrimidin-2-ylidene]ammonium; chloride], the EC50 is 6.8 nM.

With `CCC1(CC)CC(=O)N([C@H](CCOC)c2cccc(C(=O)N[C@@H]3c4ccccc4OC[C@@H]3O)c2)C(=N)N1` [Example 152A, [4,4-diethyl-1-[(1R)-1-[3-[[(3R,4R)-3-hydroxychroman-4-yl]carbamoyl]phenyl]-3-methoxy-propyl]-6-oxo-hexahydropyrimidin-2-ylidene]ammonium; 2,2,2-trifluoroacetate], the EC50 amounted to 8.8 nM.

On to `CCOCC[C@H](c1cccc(C(=O)N[C@@H]2c3ccccc3C[C@H]2O)c1)N1C(=N)NC(C)(C)CC1=O` [Example 171, [1-[3-ethoxy-1-[3-[[(1R,2R)-2-hydroxyindan-1-yl]carbamoyl]phenyl]propyl]-4,4-dimethyl-6-oxo-hexahydropyrimidin-2-ylidene]ammonium; 2,2,2-trifluoroacetate], for which the EC50 stood at 5.2 nM.

For `N=C1N[C@@](CC2CC2)(c2ccccc2)CC(=O)N1Cc1cccc(C(=O)N[C@H]2CCOc3ccccc32)c1` [Example 6A, [(4R)-1-[[3-[[(4S)-chroman-4-yl]carbamoyl]phenyl]methyl]-4-(cyclopropylmethyl)-6-oxo-4-phenyl-hexahydropyrimidin-2-ylidene]ammonium; 2,2,2-trifluoroacetate], the EC50 is 58.8 nM.

On to `CCC1(CC)CC(=O)N([C@@H](CC(C)C)c2cccc(C(=O)N[C@H]3CCOc4ccccc43)c2)C(=N)N1` [Example 14B, [1-[1-[3-[[(4S)-chroman-4-yl]carbamoyl]phenyl]-3-methyl-butyl]-4,4-diethyl-6-oxo-hexahydropyrimidin-2-ylidene]ammonium; 2,2,2-trifluoroacetate], for which the EC50 turned out to be 55 nM.

Turning to `CCC1(CC)CC(=O)N([C@H](CC(C)C)c2cccc(C(=O)N[C@H]3CCOc4ccccc43)c2)C(=N)N1` [Example 14A, [1-[1-[3-[[(4S)-chroman-4-yl]carbamoyl]phenyl]-3-methyl-butyl]-4,4-diethyl-6-oxo-hexahydropyrimidin-2-ylidene]ammonium; 2,2,2-trifluoroacetate], the EC50 was 0.2 nM.

On to `CC1(C)CC(=O)N(C(CC(F)(F)F)c2cccc(C(=O)N[C@@H]3c4ccccc4OC(C)(C)[C@H]3O)c2)C(=N)N1` (stereo partly drawn) [Example 233, N-[(3S,4R)-3-hydroxy-2,2-dimethyl-chroman-4-yl]-3-[3,3,3-trifluoro-1-(2-imino-4,4-dimethyl-6-oxo-hexahydropyrimidin-1-yl)propyl]benzamide], for which the EC50 came to 1.4 nM.

As to `CCC1(CC)CC(=O)N(Cc2cccc(C(=O)N[C@H]3CCOc4ccc(Br)cc43)c2)C(=N)N1` (stereo in doubt) [Example 219, [1-[[3-[(6-bromochroman-4-yl)carbamoyl]phenyl]methyl]-4,4-diethyl-6-oxo-hexahydropyrimidin-2-ylidene]ammonium; 2,2,2-trifluoroacetate], the EC50 was 6.6 nM.

As for `CCC1(CC)CC(=O)N([C@H](C)c2cccc(C(=O)N[C@@H]3c4ccccc4OC[C@@]3(C)O)c2)C(=N)N1` [Example 205A, [4,4-diethyl-1-[(1R)-1-[3-[[(3S,4R)-3-hydroxy-3-methyl-chroman-4-yl]carbamoyl]phenyl]ethyl]-6-oxo-hexahydropyrimidin-2-ylidene]ammonium; 2,2,2-trifluoroacetate], the concentration giving a half-maximal response (EC50) was 1.1 nM.

Staying with this test, now noted: parasite growth measured by LDH assay after 72 hours at 37° C.; 0.7% rings, 2% haematocrit; read-out: EC50.
For the compound `CCC1(CC)CC(=O)N([C@H](CCOC)c2cccc(C(=O)N[C@@H]3c4ccccc4OCC3(C)O)c2)C(=N)N1` (stereo in doubt) [Example 143B, 3-[1-(4,4-diethyl-2-imino-6-oxo-hexahydropyrimidin-1-yl)-3-methoxy-propyl]-N-(3-hydroxy-3-methyl-chroman-4-yl)benzamide], the EC50 was determined as 1.8 nM.

Take `CCC1(CC)CC(=O)N([C@H](CCOC)c2cc(F)cc(C(=O)N[C@H]3c4ccccc4CC3(C)O)c2)C(=N)N1` (single isomer, unassigned) [Example 144C, 3-[1-(4,4-diethyl-2-imino-6-oxo-hexahydropyrimidin-1-yl)-3-methoxy-propyl]-5-fluoro-N-(2-hydroxy-2-methyl-indan-1-yl)benzamide]: the EC50 was found to be 99.5 nM.

The test is the same for the next values; noted with them: parasite growth measured by LDH assay after 72 hours at 37° C.; 0.7% rings, 2% haematocrit; trifluoroacetate; read-out: EC50.
With `C#CCCCC(c1cccc(C(=O)N[C@@H]2CCOc3ccccc32)c1)N1C(=N)NC(CC)(CC)CC1=O` (stereo partly drawn) [Example 210B, [1-[1-[3-[[(4R)-chroman-4-yl]carbamoyl]phenyl]hex-5-ynyl]-4,4-diethyl-6-oxo-hexahydropyrimidin-2-ylidene]ammonium; 2,2,2-trifluoroacetate], the EC50 was 2.3 nM.

Consider `CCC1(CC)CC(=O)N([C@H](CCOC)c2cc(F)cc(C(=O)NC3c4ccccc4OC3(C)COC)c2)C(=N)N1` (single isomer, unassigned) [Example 176A, trifluoroacetate], for which the EC50 worked out at 21.8 nM.

For `CCC1(CC)CC(=O)N([C@H](CCOC)c2cccc(C(=O)N[C@@H]3c4ccccc4OC3(C)CO)c2)C(=N)N1` (single isomer, unassigned) [Example 180B, trifluoroacetate], the EC50 worked out at 15.3 nM.
